Source: patent US11040981B2, “Pyrrolotriazine compounds and methods of inhibiting TAM kinases” (Syros Pharmaceuticals, Inc., priority 2017, dated 2021)

Columns and labels:
MERTK = biological target: T1, MERTK (Homo sapiens, UniProt Q12866); experiment: TR-FRET kinase activity assay, MERTK; type: biochemical
T1 sequence (Q12866 21-999): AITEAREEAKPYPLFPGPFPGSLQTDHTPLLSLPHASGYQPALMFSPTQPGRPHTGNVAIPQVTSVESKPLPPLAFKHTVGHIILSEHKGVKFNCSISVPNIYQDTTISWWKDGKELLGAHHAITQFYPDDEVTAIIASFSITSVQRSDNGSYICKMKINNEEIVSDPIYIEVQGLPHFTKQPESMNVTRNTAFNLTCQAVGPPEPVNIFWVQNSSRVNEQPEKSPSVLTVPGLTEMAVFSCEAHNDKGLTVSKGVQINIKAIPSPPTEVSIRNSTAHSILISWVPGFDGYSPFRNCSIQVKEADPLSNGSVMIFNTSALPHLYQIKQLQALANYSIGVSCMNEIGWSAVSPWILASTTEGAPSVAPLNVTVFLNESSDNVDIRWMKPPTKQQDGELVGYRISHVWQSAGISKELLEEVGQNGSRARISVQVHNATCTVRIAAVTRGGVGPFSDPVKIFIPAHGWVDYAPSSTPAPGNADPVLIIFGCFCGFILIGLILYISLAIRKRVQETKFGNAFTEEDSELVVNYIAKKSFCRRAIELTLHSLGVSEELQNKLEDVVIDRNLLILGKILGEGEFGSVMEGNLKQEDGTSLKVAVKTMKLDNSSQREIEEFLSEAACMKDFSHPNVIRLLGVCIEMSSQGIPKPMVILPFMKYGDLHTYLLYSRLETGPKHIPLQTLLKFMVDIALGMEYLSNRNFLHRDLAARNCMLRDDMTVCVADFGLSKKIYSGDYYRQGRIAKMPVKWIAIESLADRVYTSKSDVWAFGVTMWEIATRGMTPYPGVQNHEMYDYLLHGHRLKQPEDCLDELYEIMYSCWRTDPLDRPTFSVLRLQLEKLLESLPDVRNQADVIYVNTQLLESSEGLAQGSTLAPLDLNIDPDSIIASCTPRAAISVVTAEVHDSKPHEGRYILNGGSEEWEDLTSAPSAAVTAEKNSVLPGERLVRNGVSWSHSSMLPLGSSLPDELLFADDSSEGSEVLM
Summary of the method: (§1)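 Inhibition is measured as loss of phospho-peptide formation: kinase, fluorescent tyrosine peptide and compound are combined, ATP is added at Km, and the reaction proceeds 60 min at RT in pH 7.5 HEPES buffer. An EDTA stop and Eu-labelled phospho-specific antibody allow TR-FRET detection for IC50 fitting.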

FLT3 = biological target: T2, FLT3 (Homo sapiens, UniProt P36888); experiment: TR-FRET kinase activity assay, FLT3; type: biochemical; conditions: ATP at Km, 60 minutes
T2 sequence (P36888 27-993): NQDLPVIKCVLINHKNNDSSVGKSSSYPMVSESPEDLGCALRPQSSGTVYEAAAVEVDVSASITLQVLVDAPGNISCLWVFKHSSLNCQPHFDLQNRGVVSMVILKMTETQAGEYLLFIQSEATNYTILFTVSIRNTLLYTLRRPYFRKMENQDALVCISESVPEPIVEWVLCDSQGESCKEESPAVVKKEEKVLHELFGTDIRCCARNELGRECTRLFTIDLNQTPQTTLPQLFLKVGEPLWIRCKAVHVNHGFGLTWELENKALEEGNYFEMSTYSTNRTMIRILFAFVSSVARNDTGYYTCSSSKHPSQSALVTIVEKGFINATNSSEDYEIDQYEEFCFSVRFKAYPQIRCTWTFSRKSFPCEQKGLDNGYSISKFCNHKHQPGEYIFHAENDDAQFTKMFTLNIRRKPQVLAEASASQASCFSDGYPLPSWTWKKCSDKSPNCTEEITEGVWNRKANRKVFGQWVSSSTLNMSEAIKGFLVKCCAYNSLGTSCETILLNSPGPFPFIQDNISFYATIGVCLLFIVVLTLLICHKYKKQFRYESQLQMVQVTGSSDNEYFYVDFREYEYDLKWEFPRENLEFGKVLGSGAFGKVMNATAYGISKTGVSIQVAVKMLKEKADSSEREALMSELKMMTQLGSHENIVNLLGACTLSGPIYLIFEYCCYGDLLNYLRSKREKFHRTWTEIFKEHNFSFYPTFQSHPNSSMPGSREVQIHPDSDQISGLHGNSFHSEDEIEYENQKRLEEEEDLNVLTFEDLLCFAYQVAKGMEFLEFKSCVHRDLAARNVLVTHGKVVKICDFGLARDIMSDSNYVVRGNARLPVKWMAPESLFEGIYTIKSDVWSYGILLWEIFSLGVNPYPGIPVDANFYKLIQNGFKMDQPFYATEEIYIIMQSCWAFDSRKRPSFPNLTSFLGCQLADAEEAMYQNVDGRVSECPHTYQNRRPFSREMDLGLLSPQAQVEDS
Summary of the method: as §1

IC50 (MERTK; TR-FRET activity assay, ATP at Km, 60 minutes, read-out: Mer IC50): ≤ 100 nM | FLT3/Mer ratio (FLT3 IC50/Mer IC50) (MERTK; ratio calculated as FLT3 IC50/Mer IC50): +++ (“+++” represents a ratio of >100) | IC50 (FLT3): 100 to 1000 nM
Compound: COC[C@H](C)Nc1ncc2c(-c3cnn(C4COC4)c3)cc([C@@H]3CC[C@H](O)[C@H](C)C3)n2n1 [Compound 587]
